Assay results taken from PubChem BioAssay (NCI).
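Following 48 hours of exposure in 96-well plates, responses at five concentrations were used to interpolate endpoints linearly. The concentration for full growth arrest is given as TGI.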 *1 amine or outer side, *2 acyl side, *3 side chain or, on linkers, in order; H or OH if unused. Where a SMILES comes first, the peptide text is derived from it. The star is where a group is joined. γGlu = O=C(O)[CH](CCC(=O)[*:2])N[*:1]; NHOH = ON*

How the values were obtained:
Assay in all cases: inhibition of tumour cell growth, NCI panel, 48 h
A549 NSCLC = system: A549 NSCLC
BT-549 breast = system: BT-549 breast
HCC-2998 colon = system: HCC-2998 colon
HS 578T breast = system: HS 578T breast
HT29 colon = system: HT29 colon
LOX IMVI melanoma = system: LOX IMVI melanoma
M14 melanoma = system: M14 melanoma
MALME-3M melanoma = system: MALME-3M melanoma
MDA-MB-231 breast = system: MDA-MB-231 breast
MDA-MB-435 = system: MDA-MB-435
MOLT-4 leukemia = system: MOLT-4 leukemia
NCI-H23 lung = system: NCI-H23 lung
NCI/ADR-RES ovarian = system: NCI/ADR-RES ovarian
OVCAR-5 ovarian = system: OVCAR-5 ovarian
PC-3 prostate = system: PC-3 prostate
SK-MEL-5 melanoma = system: SK-MEL-5 melanoma
SNB-19 CNS = system: SNB-19 CNS
T-47D breast = system: T-47D breast
U251 CNS = system: U251 CNS
UO-31 renal = system: UO-31 renal

Compound | TGI (A549 NSCLC) [µM] | TGI (BT-549 breast) [µM] | TGI (HCC-2998 colon) [µM] | TGI (HS 578T breast) [µM] | TGI (HT29 colon) [µM] | TGI (LOX IMVI melanoma) [µM] | TGI (M14 melanoma) [µM] | TGI (MALME-3M melanoma) [µM] | TGI (MDA-MB-231 breast) [µM] | TGI (MDA-MB-435) [µM] | TGI (MOLT-4 leukemia) [µM] | TGI (NCI-H23 lung) [µM] | TGI (NCI/ADR-RES ovarian) [µM] | TGI (OVCAR-5 ovarian) [µM] | TGI (PC-3 prostate) [µM] | TGI (SK-MEL-5 melanoma) [µM] | TGI (SNB-19 CNS) [µM] | TGI (T-47D breast) [µM] | TGI (U251 CNS) [µM] | TGI (UO-31 renal) [µM]
COC(=O)[C@@H]1COC(C(C)(C)C)N1C(=O)C(c1ccccc1)c1ccccc1 (stereo partly drawn) | > 100 | > 100 | > 100 | > 100 | > 100 | 52.1 | > 100 | > 100 | 81.8 | > 100 | > 100 | > 100 | > 100 | > 100 | > 100 | > 100 | > 100 | > 100 | > 100 | > 100
O=C(c1ccccc1)N1CCC(Nc2nccs2)O1 (stereo not drawn) | > 10 | > 10 | > 10 | > 10 | > 10 | > 10 | > 10 | > 10 | > 10 | > 10 | > 10 | > 10 | > 10 | > 10 | > 10 | > 10 | > 10 | > 10 | – | > 10
CCc1ccc(/C=C/C(=O)C2CN(CC)CCC2(O)/C=C/c2ccc(CC)cc2)cc1 (stereo not drawn) | 20 | 11.2 | 3.99 | 8.67 | 3.79 | 2.9 | 7.11 | 20 | 5.07 | 4.07 | 6.03 | 11.5 | 12.4 | 9.69 | 12.4 | 11.2 | 23.3 | 10.1 | 3.41 | 11.6
COc1ccc(C(=C2C(=O)N(c3ccccc3)C(=O)C2=C(C)C)c2ccc(OC)cc2)cc1 | > 62.9 | > 39.2 | > 52 | > 39 | 20.2 | > 31.3 | 13.5 | > 100 | > 35.4 | 4.9 | > 39.7 | > 39.4 | > 100 | > 58.6 | > 40.1 | > 51.4 | > 56.2 | > 100 | > 46.1 | > 31
O=C(Nc1ncc([N+](=O)[O-])s1)c1ccccc1O | > 87.4 | 79.2 | > 100 | 32.5 | > 76.2 | > 100 | 79.7 | 77.2 | > 77.5 | 66.7 | > 100 | > 70.5 | > 82.4 | > 100 | > 94.7 | 37.5 | > 100 | 64 | > 100 | 98.1
COCOc1c(C(OCOC)c2cnc(Sc3ccccc3)n2C)ccc(OC)c1OC (stereo not drawn) | > 100 | > 100 | > 100 | > 100 | > 100 | > 100 | – | > 100 | > 100 | > 100 | > 100 | > 100 | > 100 | > 100 | > 100 | > 100 | > 100 | > 100 | > 100 | > 100
C=C1CC(C)(COc2ccc3c(C)cc(=O)oc3c2)OC1=O (stereo not drawn) | 23.8 | 7.56 | 9.5 | 31.9 | 4.5 | 5.11 | 3.35 | 6.75 | 15.5 | 8.92 | 4.2 | 14.1 | 17.6 | 16.5 | 13.5 | 3.37 | 28.4 | 3.8 | 25.4 | 18.9
Cn1cnc2c1c(=O)n(CCNCCO)c(=O)n2C | > 100 | > 100 | > 100 | > 100 | > 100 | > 100 | > 100 | > 100 | > 100 | > 100 | > 100 | > 100 | > 100 | > 100 | > 100 | > 100 | > 100 | > 100 | > 100 | > 100
CCCCCC(=Nc1n[nH]nc1C(N)=O)OCC | > 100 | > 100 | > 100 | > 100 | > 100 | > 100 | > 100 | > 100 | > 100 | > 100 | > 100 | > 100 | > 100 | > 100 | > 100 | > 100 | > 100 | > 100 | > 100 | > 100
COc1ccc(/C=C2\CCc3cc(OC)c(OC)cc3C2=O)cc1 | > 10 | > 10 | > 10 | > 10 | > 10 | > 10 | > 10 | > 10 | > 10 | > 10 | > 10 | > 10 | > 10 | > 10 | > 10 | > 10 | > 10 | > 10 | > 10 | > 10
COC(=O)N/N=C(/c1nc2ccc([N+](=O)[O-])cc2[nH]c1=O)C(O)c1ccc(OC)c(OC)c1 (stereo not drawn) | > 100 | > 100 | > 100 | > 100 | > 100 | > 61.7 | > 100 | > 100 | > 100 | > 100 | > 100 | > 100 | > 100 | > 100 | > 100 | > 78.7 | > 100 | > 100 | > 100 | > 100
NCCNCCCNC(=O)c1cc(-c2ccccc2)nc2ccccc12 | > 100 | > 100 | 34.4 | > 100 | > 100 | > 100 | 28.3 | 30.8 | > 100 | 43.5 | 52.3 | > 100 | > 100 | > 100 | > 100 | 30.5 | > 100 | > 100 | 36.6 | > 100
COc1ccc(/C=C2\CCC(Cc3ccccc3)(CN(C)C)C2=O)cc1 (stereo not drawn) | > 100 | > 100 | > 100 | > 100 | > 87.8 | 57.5 | 66.2 | > 100 | > 100 | > 100 | > 81.2 | > 100 | > 100 | > 100 | > 100 | 44.8 | > 100 | > 100 | > 100 | > 100
OCCCCCCCCCCCOc1ccc(C2OCC3(CC=CCC3)CO2)cc1 (stereo not drawn) | 45.7 | 30.9 | 38 | 40 | 14.8 | 25.2 | 26 | 43.4 | 31.4 | 38 | > 100 | 31.6 | 36.3 | 46.3 | 22.8 | 80.2 | 43.5 | 31 | 33.2 | 40.9
CC1OC(OCC2OC(Oc3ccc(C4CC(=O)c5c(O)cc(O)cc5O4)cc3O)C(O)C(O)C2O)C(O)C(O)C1O (stereo not drawn) | > 100 | > 100 | > 100 | > 100 | > 100 | > 100 | > 100 | > 100 | > 100 | > 100 | > 100 | > 100 | > 100 | > 100 | > 100 | > 100 | > 100 | > 100 | > 100 | > 100
Cn1ccoc1=Nc1ccc(Cl)c(Cl)c1 | > 10 | > 10 | > 10 | > 10 | > 10 | > 10 | > 10 | > 10 | > 10 | > 10 | > 10 | > 10 | > 10 | > 10 | > 10 | > 10 | > 10 | > 10 | > 10 | > 10
COCCOC1=C(Cl)C(=O)c2c(O)ccc(O)c2C1=O | 28.5 | 5.44 | 15.6 | 8.34 | 7.7 | 3.28 | 3.22 | 2.17 | 3.2 | 2.23 | 0.481 | 9.54 | 8.5 | 13.7 | 13 | 5.15 | 29.2 | 6.61 | 12.1 | 3.83
CCOC(=O)CNC(=O)C(CCC(=O)NO)NC(=O)CCC(N)C(=O)O (stereo not drawn) (γGlu-Glu(NHOH)-Gly-OEt; configuration not given here) | > 100 | > 100 | > 100 | > 100 | > 100 | > 100 | > 100 | – | > 100 | > 100 | > 100 | > 100 | > 100 | > 100 | > 100 | > 100 | > 100 | > 100 | > 100 | > 100
COc1cc2c(cc1OC)C(=O)/C(=C/c1cc(Cl)cc(Cl)c1)C2 | > 100 | > 100 | > 100 | > 100 | > 100 | > 100 | > 100 | > 59.7 | > 100 | > 19.6 | > 100 | > 100 | 10.4 | > 100 | > 100 | > 24.1 | > 100 | > 100 | > 100 | > 100
CSc1nc(Br)nc2ncn(C3CC(Oc4ccc(C)cc4)C(COc4ccc(C)cc4)O3)c12 (stereo not drawn) | > 100 | > 100 | > 100 | 63.5 | > 100 | > 100 | > 100 | > 100 | > 100 | > 100 | > 100 | > 100 | > 100 | > 100 | > 100 | > 100 | > 100 | > 100 | > 100 | 75.7
CNN1C(=O)c2c(C)c(C)c(C#N)c(N)c2C1=O | > 100 | > 100 | > 100 | > 100 | – | > 100 | > 100 | > 100 | > 100 | > 100 | > 100 | – | > 100 | > 100 | > 100 | > 100 | > 100 | > 100 | > 100 | > 100
CC(C)NC(=O)OCc1c(COC(=O)NC(C)C)c(-c2cc[n+](COC(=O)C(C)C)cc2)n2c1CCC2 | > 100 | > 100 | > 100 | > 100 | > 100 | > 100 | > 100 | > 100 | > 100 | > 100 | 99.2 | > 100 | > 100 | > 100 | > 100 | > 100 | > 100 | > 100 | > 100 | > 100
COC(=O)N/N=C(\c1ccccc1)c1ccc(OC)cc1 | > 100 | > 100 | > 100 | > 100 | > 100 | > 100 | > 100 | > 100 | > 100 | > 100 | > 100 | > 100 | > 100 | > 100 | > 100 | > 100 | > 100 | > 100 | > 100 | > 100
COc1ccc2c(c1)CCc1c-2n(CCN2CCOCC2)c2ccc(OC)cc12 | > 100 | > 100 | 33.2 | > 100 | 53.6 | – | > 100 | > 100 | > 100 | > 100 | 41.1 | > 100 | > 100 | > 100 | > 100 | > 100 | – | > 100 | > 100 | > 100
